Earlier results in patent publication US20140243422A1, “METHODS OF TREATING BEHAVIORAL AND PSYCHIATRIC DISORDERS” (ELAN PHARMACEUTICALS, INC., priority 2011, published 2014).

System: brain myo-inositol levels
Conditions: bipolar patients, therapeutic doses, within a few days; cited from earlier work

For `O=C([O-])[O-].[Li+].[Li+]` [Lithium, lithium carbonate], the “reduction of brain myo-inositol levels” value is given as roughly 30%.
